Patent US8101740B2, “Positron emission tomography probes for imaging immune activation and selected cancers” (The Regents of the University of California, priority 2007, dated 2012)

Key:
[1] = microPET/CT in Fas^1pr systemic autoimmunity model; type: in vivo, B6-MRL-Fas^1pr/J mice
splenic CD8+T cells = test: radioactivity in sorted splenic CD8+T cells from mice injected with probe; type: in vivo; details: CD62LLOW/CD44HIGH vs CD62LHIGH/CD44LOW
Description: To further investigate the cellular basis of elevated [^18F]D-FAC retention, splenic CD8+T cells from mice injected with [^18F]FAC were fractionated by flow cytometry into naïve (CD62LHIGH/CD44LOW) and effector populations (CD62LLOW/CD44HIGH).

[2] = biodistribution and radiation dosimetry in healthy human subjects; type: in vivo
Description: [^18F]D-FAC was evaluated in humans to a preliminary degree, whereby we investigated the normal biodistribution and radiation dosimetry of [^18F]D-FAC in human subjects (FIG. 16). […] Emission scans were acquired 20, 48, and 76 min post injection and radiation dosimetry estimates were calculated using the Olinda® software. […] The radiation dosimetry estimates show high agreement with the dosimetry results obtained from the studies in mice. The dose-limiting organs were the urinary bladder wall and the kidneys.

[3] = tested on: L1210 wild type or 10K subcutaneous tumors; test: PET of subcutaneous L1210 wild type and 10K tumors; type: in vivo, SCID mice; details: 4 days after injection
Description: To investigate whether [^18F]D-FAC PET can distinguish gemcitabine-sensitive cancer cells from the resistant cancer cells in vivo, mice were injected with L1210 wild type or 10K cells to establish subcutaneous tumors; mice were scanned with [^18F]FDG PET to confirm that implanted cells were viable and growing in vivo and [^18F]D-FAC PET scans were carried out to compare D-FAC accumulation in gemcitabine sensitive versus resistant cells. […] The mice were injected 4 days prior to imaging.
Mice were challenged with the MoMSV onco-retrovirus.

MoMSV-induced sarcomas = test: microPET/CT in oncoretrovirus (MoMSV) sarcoma model of anti-tumor immunity
Description: All the mice used in these studies were bred and maintained according to the guidelines of the Department of Laboratory Animal Medicine (DLAM) at the University of California, Los Angeles. For the oncoretrovirus-induced sarcoma model, C57/BL6 mice were challenged intramuscularly in the right triceps with the Moloney murine sarcoma and leukemia virus complex (MoMSV) in a volume of 100 uL of PBS as described previously^6. B6-MRL-Fas^1pr/J mice used for systemic autoimmunity studies were purchased from the Jackson Laboratory (stock number 000482). To monitor the immunosuppressive treatment, these mice were given intraperitoneal injections of dexamethasone (DEX, 10 mg/kg) at 24 hr intervals and were scanned by microPET/CT 24 hr after the last injection. Animals were anesthetized with 2% isoflurane, injected intravenously with 200 microCi [^18F]D-FAC and then scanned with microPET/CT; mice were sacrificed immediately after imaging. Organs were rapidly excised, weighed, and the radioactivity was measured in a well counter. After decay correction, results were expressed as percent of the injected dose of activity per gram of tissue (% ID/g). Other mice were anesthetized with 2% isoflurane and injected intravenously with 1 mCi [^18F]D-FAC. After 1 hr, mice were euthanized, embedded in 3% carboxymethyl cellulose (CMC, Sigma), and frozen in 100% ethanol with dry ice for 45 min. The 50 micron sections were cut using a whole body cryostat, (PMV, Stockholm, Sweden); samples were exposed overnight on BAS-TR2025 plates (Fujifilm Life Science, Stamford, Conn.). Imaging plates were read using a Fujibas-5000 phosphorimager (16 bit, 25 micron resolution; Fujifilm Life Science).
In this model, antigen-specific T cells primed by immunodominant epitopes encoded by viral gag and env genes rapidly expand in spleen and tumor draining lymph nodes (DLNs) and then traffic to the tumor lesion which is rejected over a period of 2-5 weeks^17,18. In fact, the kinetics of T cell responses against MoMSV-induced sarcomas have been studied extensively using conventional ex vivo approaches and our group has used PET reporter gene imaging to visualize tumor rejection in this model^17. To analyze whether the [^18F]D-FAC microPET/CT imaging can detect sites of localized immune activation, mice were scanned before and after the virus challenge.
To determine whether [^18F]D-FAC can provide unique information regarding localized immune activation via the afore-mentioned model, the mice imaged by [^18F]D-FAC were also scanned on consecutive days using [^18F]FDG and [^18F]FLT.

murine B16 cells = test: microPET/CT of implanted B16 melanoma; type: in vivo, C57BL/6 mice; details: imaged 7 days after 1×10^5 cells subcutaneously
Description: In addition to immune diseases, [^18F]D-FAC may also be used to measure dysregulated nucleoside metabolism in cancer. To this end, we examined the utility of [^18F]D-FAC microPET in animal models representative of leukemia or lymphoma, melanoma, and glioma tumors (FIG. 12, where the images are 1 mm coronal sections from [^18F]D-FAC microPET/CT scans 1 hr after probe injection). In FIG. 12A, SCID mice were injected intravenously with Ba/F3 cells expressing p210 BCR-ABL and go on to develop aggressive disease with massive splenic infiltration that typically results in death within ˜15 days (mice shown were imaged on day 12). In FIG. 12B, the NOD SCID mice were transplanted with wild type total bone marrow cells infected with MSCV-GFP-IRES-P185 BCR-ABL retroviral stocks and the leukemic mice were imaged 28 days following transplantation. In FIG. 12C, C57BL/6 was injected subcutaneously with 1×10^5 B16 melanoma cells and imaged 7 days later. In FIG. 12D, SCID mice were injected subcutaneously with 1×10^6 U87 glioma cells and imaged 10 days later. […] [^18F]D-FAC PET also detected implanted murine B16 cells (representative of malignant melanoma) and human U87 cells (representative of glioma tumors). […]

With Nc1ccn([C@@H]2O[C@H](CO)[C@@H](O)[C@@H]2[18F])c(=O)n1 [[^18F]D-FAC, 1-(2′-deoxy-2′-[^18F]fluoro-β-D-arabinofuranosyl)cytosine] as the compound, how does the “mice with enlarged LNs on microPET scans” value ([1]; Fas^1pr/J mice) read?
Its value is 9 out of 13.

And the “mice with probe-positive LNs” value ([1]; wild type mice)?
The value was 2 out of 19.

And the “retention in effector CD8+T cells versus naïve cytotoxic T cells” value (splenic CD8+T cells)?
Its value is about 4 fold.

What about the “absorbed dose, heart wall” value ([2]; 3 healthy male subjects) of the same compound?
The value was 5.92E-02 rem/mCi.

And the “absorbed dose, kidneys” value ([2]; 3 healthy male subjects)?
Its value is 1.06E-01 rem/mCi.

What about the “absorbed dose, osteogenic cells” value ([2]; 3 healthy male subjects) of the same compound?
The value was 6.69E-02 rem/mCi.

And the “absorbed dose, small intestine” value ([2]; 3 healthy male subjects)?
Its value is 5.80E-02 rem/mCi.

And the “absorbed dose, spleen” value ([2]; 3 healthy male subjects)?
The value was 7.36E-02 rem/mCi.

And the “absorbed dose, urinary bladder wall” value ([2]; 3 healthy male subjects)?
The value was 2.06E-01 rem/mCi.

And the effective dose overall ([2]; 3 healthy male subjects)?
Its effective dose overall is 5.08E-02 rem/mCi.

What about the “retention in the GI tract in humans in contrast to mice” value ([2]; human, in vivo) of the same compound?
The value was “substantially lower”.

What about the “organs with the highest accumulation” value ([2]; scans 20, 48 and 76 min post injection) of the same compound?
Its value is “the bladder, the kidneys, the spleen, the salivary glands, and the heart”.

And the “retention/visualization in dCK deficient, gemcitabine resistant tumors” value ([3]; L1210-10K)?
The value was “did not accumulate”.

What about the “retention/visualization in dCK positive, gemcitabine sensitive tumors” value ([3]; L1210 WT) of the same compound?
Its value is “clearly detectable”.

What about the “accumulation in the spleen and tumor DLNs relative to baseline scans” value (MoMSV-induced sarcomas; day 15, peak of anti-tumor immune response) of the same compound?
The value was “significantly increased”.

And the “accumulation in the tumor” value (MoMSV-induced sarcomas; tumor)?
Its value is 6.7±0.3 % ID/g.

And the “accumulation in the tumor DLNs” value (MoMSV-induced sarcomas; tumor draining lymph nodes)?
The value was 13±2.7 % ID/g.

What about the “accumulation in tumor over background (contralateral muscle tissue)” value (MoMSV-induced sarcomas; tumor lesions) of the same compound?
The value was 1.9±0.3 % ID/g tumor over background.

And the “detection of implanted tumor cells by PET” value (murine B16 cells)?
The value was “detected”.
